Data from patent US7592457B2 (Korea Research Institute of Chemical Technology, priority 2004, dated 2009).

Columns and labels:
[1] = target: T1, human serotonin 5-HT6 receptor (Homo sapiens, UniProt P50406); test: [3H]LSD binding at cloned 5-HT6 receptors; details: for IC50: [3H]LSD 1.87 nM, cloned receptor membranes, 37° C., 60 min, read-out: IC50; for 5-HT6 affinity compared with known selective antagonists: in words; for inhibition at 10 µM: read-out: Binding affinity (Inhibition rate % at 10 μM) 5HT6
T1 construct: made in house; host or cells: Sf21 insect cells (pBacPAK8 baculovirus vector)

D1 = D1 (Homo sapiens, UniProt P21728); test: Radioligand binding for selectivity, D1; details: read-out: Binding affinity (Inhibition rate % at 10 μM) D1
hD2L receptor = target: T2, hD2L receptor (Homo sapiens, UniProt P14416); test: Radioligand binding, dopamine D2 ([3H]spiperone); details: read-out: Binding affinity (Inhibition rate % at 10 μM) D2
T2 construct: purchased BioSignal Packard Inc., Montreal, Canada

hD3 receptor = target: T3, hD3 receptor (Homo sapiens, UniProt P35462); test: Radioligand binding, dopamine D3 ([3H]spiperone); details: read-out: Binding affinity (Inhibition rate % at 10 μM) D3
T3 construct: purchased BioSignal Packard Inc., Montreal, Canada

hD4.2 receptor = target: T4, hD4.2 receptor (Homo sapiens, UniProt P21917, DEL265-296); test: Radioligand binding, dopamine D4 ([3H]YM-09151-2); details: read-out: Binding affinity (Inhibition rate % at 10 μM) D4
T4 construct: purchased BioSignal Packard Inc., Montreal, Canada
T4 sequence (P21917 with tags, fused parts or gaps DEL265-296): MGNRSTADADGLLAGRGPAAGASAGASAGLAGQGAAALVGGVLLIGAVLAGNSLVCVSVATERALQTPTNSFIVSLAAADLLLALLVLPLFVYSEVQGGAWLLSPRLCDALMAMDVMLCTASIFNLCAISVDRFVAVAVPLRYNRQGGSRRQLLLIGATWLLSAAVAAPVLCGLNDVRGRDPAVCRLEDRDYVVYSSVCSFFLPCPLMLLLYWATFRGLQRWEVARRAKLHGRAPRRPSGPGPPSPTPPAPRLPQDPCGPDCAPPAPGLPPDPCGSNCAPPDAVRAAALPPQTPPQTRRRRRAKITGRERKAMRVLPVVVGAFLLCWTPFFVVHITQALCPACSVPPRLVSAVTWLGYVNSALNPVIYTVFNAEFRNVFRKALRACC

5-HT1a = target: T5, 5-HT1a (Homo sapiens, UniProt P08908); test: Radioligand binding, 5-HT1a ([3H]8-OH-DPAT); details: read-out: Binding affinity (Inhibition rate % at 10 μM) 5HT1a
T5 construct: purchased Euroscreen/BioSignal Packard Inc
T5 sequence (P08908 1-422): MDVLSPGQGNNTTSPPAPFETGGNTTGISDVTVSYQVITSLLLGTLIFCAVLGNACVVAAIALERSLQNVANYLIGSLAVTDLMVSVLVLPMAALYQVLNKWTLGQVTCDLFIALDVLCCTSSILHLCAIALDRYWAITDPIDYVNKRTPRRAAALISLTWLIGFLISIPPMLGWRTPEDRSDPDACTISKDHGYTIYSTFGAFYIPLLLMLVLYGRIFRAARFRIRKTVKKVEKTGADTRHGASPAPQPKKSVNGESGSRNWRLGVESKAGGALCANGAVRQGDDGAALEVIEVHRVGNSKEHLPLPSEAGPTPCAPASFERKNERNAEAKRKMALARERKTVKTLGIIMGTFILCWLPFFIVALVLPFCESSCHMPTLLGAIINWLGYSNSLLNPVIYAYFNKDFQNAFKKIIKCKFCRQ
Protocol: (§1) Radioligand bindings were performed according to the test method provided by the supplier of receptor membrane (Euroscreen/BioSignal Packard Inc.).

5-HT2a = target: T6, 5-HT2a (Homo sapiens, UniProt P28223); test: Radioligand binding, 5-HT2a ([3H]Ketanserin); details: read-out: Binding affinity (Inhibition rate % at 10 μM) 5HT2a
T6 construct: purchased Euroscreen/BioSignal Packard Inc
Protocol: as §1

5-HT2c = target: T7, 5-HT2c (Homo sapiens, UniProt P28335); test: Radioligand binding, 5-HT2c ([3H]Mesulergine); details: read-out: Binding affinity (Inhibition rate % at 10 μM) 5HT2c
T7 construct: purchased Euroscreen/BioSignal Packard Inc
T7 sequence (P28335 33-458): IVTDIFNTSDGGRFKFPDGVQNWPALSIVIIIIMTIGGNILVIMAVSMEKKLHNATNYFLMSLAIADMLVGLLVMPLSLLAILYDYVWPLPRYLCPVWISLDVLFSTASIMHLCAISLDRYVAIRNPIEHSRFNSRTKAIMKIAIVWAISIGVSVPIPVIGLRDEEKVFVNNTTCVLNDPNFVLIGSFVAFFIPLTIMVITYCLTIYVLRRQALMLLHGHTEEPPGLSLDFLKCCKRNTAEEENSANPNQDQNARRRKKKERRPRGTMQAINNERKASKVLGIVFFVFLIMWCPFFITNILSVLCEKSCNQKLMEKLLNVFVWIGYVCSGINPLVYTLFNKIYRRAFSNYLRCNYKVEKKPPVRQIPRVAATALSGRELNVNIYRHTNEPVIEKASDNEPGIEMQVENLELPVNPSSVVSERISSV
Protocol: as §1

5-HT7 = target: T8, 5-HT7 (Homo sapiens, UniProt P34969); test: Radioligand binding, 5-HT7 ([3H]LSD); details: for inhibition at 10 µM: read-out: Binding affinity (Inhibition rate % at 10 μM) 5HT7
T8 construct: purchased Euroscreen/BioSignal Packard Inc
Protocol: as §1

[2] = system: methamphetamine-induced hyperactivity and stereotypy; test: Methamphetamine-induced hyperactivity and stereotypy in rats; assay type: in vivo, rat; details: 50 mg/kg, i.p., methamphetamine 2 mg/kg
Protocol: On the day of testing, rats (200-250 g) were put into a transparent polycarbonate cages located in the activity chamber, and adapted for 30 minutes. For a methamphetamine-induced activity, vehicle or compounds according to the present invention was injected (i.p.) 30 minutes before the injection of methamphetamine (2 mg/kg, i.p.). After systemic injection of methamphetamine, total movement distance traveled or total stereotypy was measured over the 120-minutes period using an activity analyzer (TruScan, Coulbourn Instruments, USA).
The inhibitory effect of compounds (50 mg/kg, i.p.) of the present invention on methamphetamine (2 mg/kg, i.p.)-induced hyperactivity in rats is shown in FIGS. 2(a) and 2(b). The inhibitory effects of compounds (50 mg/kg, i.p.) of the present invention on methamphetamine (2 mg/kg, i.p.)-induced stereotypy is shown in FIGS. 3(a) and 3(b).

5-HT6 receptors [3] = target: T9, 5-HT6 receptors (Homo sapiens, UniProt P50406); test: 5-HT-stimulated cAMP accumulation in HeLa cell transfected with human 5-HT6 receptor; assay type: cell-based; set-up: host or cells: HeLa; details: for Antagonist activity compared with methiothepin: 5-HT-stimulated cAMP accumulation; for Functional classification at 5-HT6 receptor: inhibition of 5-HT-stimulated cAMP accumulation
Protocol: By a method (2000) disclosed by Rutledge et al. of MDS Pharma Service (Bothell, Wash., USA, MDSPS PT# 1037161), activity of adenylil cyclase in HeLa cell having transfected with human 5-HT6 receptor was measured. The assay mixture consisted of Hanks' balanced salt solution (HBSS, pH 7.4) containing: 1 mM MgCl2, 1 mM CaCl2, […] 1-methyl-3-isobutylxanthine. Incubation was started by addition of membrane suspension and compounds according to the present invention.

5-HT6 receptors [4] = target: T9, 5-HT6 receptors; details: antagonist, literature; cited from earlier work
[5] = system: rat maximal electroseizure threshold; details: literature, cited from earlier work
rats [6] = details: literature; cited from earlier work
rats [7] = details: literature; cited from earlier work; remark: listed apart in the source
rats [8] = details: water maze, literature; cited from earlier work
[9] = system: extracellular glutamate levels; details: frontal cortex and dorsal hippocampus, literature; cited from earlier work
[10] = cited from earlier work
5-HT6 receptors [11] = target: T9, 5-HT6 receptors; details: literature; cited from earlier work

T6 sequence (P28223 whole entry): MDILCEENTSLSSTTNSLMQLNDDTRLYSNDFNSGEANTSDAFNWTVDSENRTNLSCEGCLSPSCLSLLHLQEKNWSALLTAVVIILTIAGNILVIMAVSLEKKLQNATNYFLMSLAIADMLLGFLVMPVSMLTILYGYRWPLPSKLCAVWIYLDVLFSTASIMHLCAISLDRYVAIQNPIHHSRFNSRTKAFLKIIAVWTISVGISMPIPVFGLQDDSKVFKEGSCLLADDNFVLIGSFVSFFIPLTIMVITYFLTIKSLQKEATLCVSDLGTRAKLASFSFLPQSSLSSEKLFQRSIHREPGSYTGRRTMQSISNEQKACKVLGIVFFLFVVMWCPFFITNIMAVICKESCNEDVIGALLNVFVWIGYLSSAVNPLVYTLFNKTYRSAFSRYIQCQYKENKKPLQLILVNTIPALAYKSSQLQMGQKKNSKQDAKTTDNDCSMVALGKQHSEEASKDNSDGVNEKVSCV
T2 sequence (P14416 whole entry): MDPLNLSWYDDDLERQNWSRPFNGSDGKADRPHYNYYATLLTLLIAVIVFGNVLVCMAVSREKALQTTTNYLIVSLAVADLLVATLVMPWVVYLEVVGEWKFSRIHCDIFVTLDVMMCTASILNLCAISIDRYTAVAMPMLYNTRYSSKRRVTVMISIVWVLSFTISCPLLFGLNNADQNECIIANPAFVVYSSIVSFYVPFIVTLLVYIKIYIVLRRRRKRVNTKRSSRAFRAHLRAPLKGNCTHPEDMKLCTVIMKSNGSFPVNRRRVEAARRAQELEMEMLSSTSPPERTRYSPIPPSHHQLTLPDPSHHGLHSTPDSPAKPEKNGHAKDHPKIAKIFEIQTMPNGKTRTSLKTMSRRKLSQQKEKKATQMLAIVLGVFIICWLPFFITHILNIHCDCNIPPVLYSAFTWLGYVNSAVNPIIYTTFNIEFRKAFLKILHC
T9 sequence (P50406 whole entry): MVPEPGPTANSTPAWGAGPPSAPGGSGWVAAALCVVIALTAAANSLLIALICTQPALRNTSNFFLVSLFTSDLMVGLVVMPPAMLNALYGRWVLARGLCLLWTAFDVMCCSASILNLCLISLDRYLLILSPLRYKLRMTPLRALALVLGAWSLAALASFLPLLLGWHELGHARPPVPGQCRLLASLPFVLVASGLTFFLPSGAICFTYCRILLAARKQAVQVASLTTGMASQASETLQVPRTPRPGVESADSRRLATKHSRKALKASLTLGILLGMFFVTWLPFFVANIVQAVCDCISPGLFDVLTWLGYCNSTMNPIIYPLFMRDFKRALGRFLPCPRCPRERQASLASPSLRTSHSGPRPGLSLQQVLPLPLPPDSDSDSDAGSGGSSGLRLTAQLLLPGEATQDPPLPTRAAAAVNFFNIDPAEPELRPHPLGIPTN
T1 sequence (P50406 whole entry): as above
D1, sequence (P21728 whole entry): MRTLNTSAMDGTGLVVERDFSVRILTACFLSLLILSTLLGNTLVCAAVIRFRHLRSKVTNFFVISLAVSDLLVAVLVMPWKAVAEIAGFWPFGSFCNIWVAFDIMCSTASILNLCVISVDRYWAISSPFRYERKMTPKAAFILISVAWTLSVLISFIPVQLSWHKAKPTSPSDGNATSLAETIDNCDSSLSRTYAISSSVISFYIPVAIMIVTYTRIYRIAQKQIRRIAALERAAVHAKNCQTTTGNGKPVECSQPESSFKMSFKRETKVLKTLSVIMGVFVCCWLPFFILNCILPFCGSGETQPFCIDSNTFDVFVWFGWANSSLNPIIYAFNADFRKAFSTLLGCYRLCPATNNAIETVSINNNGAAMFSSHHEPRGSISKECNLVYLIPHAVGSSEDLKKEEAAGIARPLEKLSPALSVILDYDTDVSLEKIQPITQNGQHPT
T8 sequence (P34969 whole entry): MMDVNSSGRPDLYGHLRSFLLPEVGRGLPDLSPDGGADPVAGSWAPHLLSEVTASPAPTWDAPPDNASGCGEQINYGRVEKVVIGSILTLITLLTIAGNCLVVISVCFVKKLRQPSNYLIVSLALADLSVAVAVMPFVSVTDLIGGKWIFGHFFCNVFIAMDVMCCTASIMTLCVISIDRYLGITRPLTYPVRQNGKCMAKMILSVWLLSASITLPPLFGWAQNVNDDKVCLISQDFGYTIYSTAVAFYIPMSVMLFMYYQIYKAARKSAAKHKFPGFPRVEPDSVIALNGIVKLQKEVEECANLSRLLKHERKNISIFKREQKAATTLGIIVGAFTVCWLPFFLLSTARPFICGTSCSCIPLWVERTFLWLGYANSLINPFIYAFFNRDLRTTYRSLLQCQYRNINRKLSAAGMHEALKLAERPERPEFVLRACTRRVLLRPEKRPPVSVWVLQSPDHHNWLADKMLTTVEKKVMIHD
T3 sequence (P35462 whole entry): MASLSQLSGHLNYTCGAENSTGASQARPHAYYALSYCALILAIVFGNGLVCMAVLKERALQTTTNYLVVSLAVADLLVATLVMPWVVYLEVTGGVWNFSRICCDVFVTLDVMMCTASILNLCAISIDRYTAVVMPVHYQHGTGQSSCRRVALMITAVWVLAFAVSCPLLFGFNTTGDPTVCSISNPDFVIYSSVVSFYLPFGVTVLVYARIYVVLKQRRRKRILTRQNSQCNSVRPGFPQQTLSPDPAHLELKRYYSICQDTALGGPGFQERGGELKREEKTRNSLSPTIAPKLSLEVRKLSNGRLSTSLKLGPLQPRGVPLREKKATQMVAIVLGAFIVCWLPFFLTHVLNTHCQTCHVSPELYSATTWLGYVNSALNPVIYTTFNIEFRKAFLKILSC

SMILES | IC50 [1] [nM] | inhibition at 10 µM [1] [%] | inhibition at 10 µM (D1) [%] | inhibition at 10 µM (hD2L receptor) [%] | inhibition at 10 µM (hD3 receptor) [%] | inhibition at 10 µM (hD4.2 receptor) [%] | inhibition at 10 µM (5-HT1a) [%] | inhibition at 10 µM (5-HT2a) [%] | inhibition at 10 µM (5-HT2c) [%] | inhibition at 10 µM (5-HT7) [%] | melting point [°C] | further results
CC1(c2ccccc2)C(=O)Nc2cc(Cl)cc(Cl)c2C1=O (stereo not shown) [Example 1, 5,7-dichloro-3-methyl-3-phenyl-1H-quinoline-2,4-dione] | 89 | 91.1 | 11.4 | 1.6 | 12.6 | 0 | 16.4 | 6.4 | 18.3 | 43.2 | 222 to 225 | 5-HT6 affinity compared with known selective antagonists [1]: almost same affinities as or better affinities than known selective antagonists; Antipsychotic effect [2]: mild antipsychotic effect; Antagonist activity compared with methiothepin (5-HT6 receptors [3]): weaker antagonist activity than methiothepin; Functional classification at 5-HT6 receptor (5-HT6 receptors [3]): 5-HT6 receptor antagonist
COc1ccc2c(c1)c(CCN(C)C)cn2S(=O)(=O)c1ccccc1 [MS-245] |  |  |  |  |  |  |  |  |  |  |  | pA2 (5-HT6 receptors [4]): 8.88
CNc1cc(NS(=O)(=O)c2ccc(N)cc2)nc(NC)n1 [Ro 04-6790] |  |  |  |  |  |  |  |  |  |  |  | anticonvulsant activity [5]: possess anticonvulsant activity; food intake (rats [6]): decreased food intake; behavior of yawning, stretching, and chewing (rats [7]): capable of inducing this same effect
CC1(c2ccc(O)cc2)C(=O)Nc2cc(Cl)cc(Cl)c2C1=O (stereo not shown) [Example 13, 5,7-dichloro-3-(4-hydroxy-phenyl)-3-methyl-1H-quinoline-2,4-dione] | 20 | 89.5 | 51 | 35.2 | 27.8 | 0 | 33.9 | 48.6 | 39.4 | 36.7 | 222 to 223 | 5-HT6 affinity compared with known selective antagonists [1]: almost same affinities as or better affinities than known selective antagonists; Antipsychotic effect [2]: mild antipsychotic effect; Antagonist activity compared with methiothepin (5-HT6 receptors [3]): weaker antagonist activity than methiothepin; Functional classification at 5-HT6 receptor (5-HT6 receptors [3]): 5-HT6 receptor antagonist
COc1ccc(NS(=O)(=O)c2sc3ccc(Cl)cc3c2C)cc1N1CCNCC1 [SB-271046, reference compound] |  |  | 49.7 | 17.3 | 66.2 | 14.2 | 84.2 | 60.1 | 64.3 |  |  | Binding affinity (Inhibition rate % at 10 μM) 5HT7 (5-HT7; 10 μM): 34.9%; retention of a previously learned task (rats [8]): significant improvement in retention of a previously learned task; extracellular glutamate levels [9]: increased extracellular glutamate levels in frontal cortex and dorsal hippocampus by several fold; anticonvulsant activity [5]: possess anticonvulsant activity; oral bioavailability ([10]; literature): > 80%
COc1ccc(S(=O)(=O)Nc2cc(Br)cc(F)c2Br)cc1N1CCNCC1 [SB-357134] |  |  |  |  |  |  |  |  |  |  |  | retention of a previously learned task (rats [8]): significant improvement in retention of a previously learned task; seizure threshold ([5]; rat maximal electroseizure threshold, oral administration): potent and dose-dependent increase in seizure threshold; clearance (in words) ([10]; in vivo): low clearance rate
COc1ccc(C2(C)C(=O)Nc3cc(N4CCN(C)CC4)cc(Cl)c3C2=O)cc1 (stereo not shown) [Example 46, 5-chloro-3-(4-methoxy-phenyl)-3-methyl-7-(4-methyl-piperazine-1-yl)-1H-quinoline-2,4-dione] | 1460 | 67.1 | 16 | 30.4 | 16.7 | 7.2 | 25.4 | 16.5 | 10.7 | 17.8 | 201 to 202 | 
COc1cc2c(c(OC)c1)C(=O)C(C)(c1ccccc1)C(=O)N2 (stereo not shown) [Example 8, 5,7-dimethoxy-3-methyl-3-phenyl-1H-quinoline-2,4-dione] | 118 | 74 | 16.9 | 16 | 4.6 | 0.8 | 30.2 | 13.6 | 23.9 | 23.3 |  | Ki (5-HT6 receptors [11]): 1.4 nM
CC1(c2ccccc2)C(=O)Nc2cc(Cl)ccc2C1=O (stereo not shown) [Example 3, 7-chloro-3-methyl-3-phenyl-1H-quinoline-2,4-dione] | 2470 | 69 | 25.5 | 4.9 | 10.9 | 0 | 40.2 | 12 | 8.9 | 7 | 174 to 175 | 
